Here are results for seven molecules from patent US10124033B2, “Peptides and methods of use” (BAXALTA INCORPORATED, priority 2014, dated 2018).

In one assay the target is T1, Protein S (Homo sapiens, UniProt P07225).
T1 sequence (P07225 41-676 limits assumed): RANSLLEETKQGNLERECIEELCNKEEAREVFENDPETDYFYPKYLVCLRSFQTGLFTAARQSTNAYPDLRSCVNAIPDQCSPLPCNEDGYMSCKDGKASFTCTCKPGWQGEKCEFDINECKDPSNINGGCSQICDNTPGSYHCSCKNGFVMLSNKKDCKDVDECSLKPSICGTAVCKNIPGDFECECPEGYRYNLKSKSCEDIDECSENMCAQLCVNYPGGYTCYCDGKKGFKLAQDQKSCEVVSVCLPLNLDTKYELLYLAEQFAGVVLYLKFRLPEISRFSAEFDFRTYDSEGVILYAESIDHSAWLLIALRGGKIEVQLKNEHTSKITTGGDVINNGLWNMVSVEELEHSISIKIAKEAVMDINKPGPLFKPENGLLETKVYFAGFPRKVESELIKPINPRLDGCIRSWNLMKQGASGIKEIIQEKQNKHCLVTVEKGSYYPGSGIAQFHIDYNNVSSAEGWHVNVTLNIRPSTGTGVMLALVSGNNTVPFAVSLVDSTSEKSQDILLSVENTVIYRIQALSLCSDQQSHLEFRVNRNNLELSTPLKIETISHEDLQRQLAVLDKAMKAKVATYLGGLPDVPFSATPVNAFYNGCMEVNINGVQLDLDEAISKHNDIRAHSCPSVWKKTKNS
In words: competition (IC50) ELISA with biotinylated tracer peptide JBS0684. The note with it: competition ELISA, tracer JBS0684; re-synthesized peptides. It is filed as binding. The procedure:
The new peptide candidates were synthesized (purity >60%) and screened for affinity in a competitive binding assay (ELISA IC50) and activity in a thrombin generation assay (CAT). The competition (IC50) ELISA was performed using biotinylated tracer peptide JBS0684 to compete for Protein S-binding with candidate peptides. Peptides that compete with the tracer bind the same region of Protein S as the tracer (and each other). Ninety-six well PolySorp plates (Nunc) were coated with 3 μg/mL Protein S in coating buffer (15 mM Na2CO3, 35 mM NaHCO3, pH 9.6) over night. Plates were washed three times with wash buffer (HNaT: 175 mM NaCl, 25 mM HEPES, 5 mM CaCl2, 0.1% Tween 80, pH 7.35), and blocked with 100 μl 2% yeast extract in HNaT for at least 1 hour. Plates were then washed three times with HNaT. JBS0684 was applied at a concentration corresponding to the EC90 value determined in the binding ELISA. A competitor stock solution of peptide (10 mM) was diluted 1/33.3 in HNaT without HSA, and a serial ⅓ dilution was prepared with HNaT with 3% DMSO. The dilution was further diluted with the biotinylated tracer peptide in a ratio of 1:6 (20 μl competitor dilution and 100 μl tracer peptide). The mixture of competitor and tracer peptide was applied to the Protein S-coated microtiter plate and incubated for 1.5 hours. The plates were washed three times with HNaT. Peptide-Protein S binding was detected by applying HRP-conjugated streptavidin to the microtiter plate, incubating the mixture for one hour, washing the plate three times with HNaT, applying TMB (3,3′5,5′-Tetramethylbenzidin), and detecting the subsequent chromogenic conversion of TMB by HRP. IC50 measurements of peptides are provided herein (see, e.g., Table 3).
For orientation: An ELISA detects its analyte on a solid surface through an enzyme-linked reagent.

Assay [1] addresses T2, Protein S/APC cofactor activity (Homo sapiens, UniProt P07225).
T2 construct: host or cells: plasma
T2 sequence (P07225 41-676 limits assumed): T1 sequence (P07225 41-676 limits assumed)
In words: CAT assay: Protein S/APC-dependent thrombin generation in FVIII-inhibited plasma. It is filed as biochemical. The note with it: Protein S-depleted plasma supplemented with APC and Protein S, FVIII-inhibited. Here is the method:
Peptides also were tested for improvement of Protein S/APC-dependent thrombin generation in hemophilic plasma using a CAT assay. Protein S enhances the anticoagulation of APC in plasma. The CAT assay quantifies the effect of Protein S on APC-mediated thrombin generation initiated via the extrinsic coagulation pathway (Nicolaes, Blood Coagul. Fibrinolysis, 8:28 (1997)). APC (35 nM) and Protein S (25 nM) was added to Protein 5-depleted plasma, and plasma samples were incubated with high titer heat inactivated anti-human FVIII plasma raised in goat (4490 BU/ml; Baxter BioScience, Vienna, Austria; 50 BU/ml final plasma concentration). Thrombin formation in plasma was followed by calibrated automated thrombography (CAT) in a Fluoroskan Ascent® reader (Thermo Labsystems, Helsinki, Finland) and quantified via the thrombin peak-height. Thrombin generation was determined at high tissue factor (TF) concentration in the absence and in the presence of APC at a concentration that reduces the peak height to ˜20%. The inhibitory effect of peptides described herein on the APC cofactor activity of Protein S (PS) in plasma was measured in FVIII-inhibited pooled normal plasma supplemented with APC. Complete (100%) Protein S/APC inhibition is the height of the thrombin peak without addition of APC. Lack of (0%) PS/APC inhibition correlates to the thrombin peak-height value with a certain amount of APC. Peptides were ranked by their normalized values in comparison to the mean of wild-type controls including SD at two defined peptide concentrations (EC50 and EC90).
Exemplary conditions for the CAT assay are as follows. Protein S-depleted plasma was supplemented with 35 nM APC and […]. Stock APC was diluted with 10 pM TF and 15 μM PL. Lyophilized peptides were dissolved in 100% DMSO to a 5 mM stock concentration and further diluted with HNABSA5-buffer+0.1% Tween80. […] In a 96 well Immulon 2HB (transparent), U-bottom (ThermoElectron) plate was mixed 80 μl plasma (+CTI+Z994-5), 10 μl peptide dilution, and 10 μl APC-TF-PL-MIX or Calibrator. Thrombin generation was initiated by dispensing 20 μL of FluCa reagent containing fluorogenic substrate and HEPES-buffered CaCl2 (100 mM) into each well. Fluorescence intensity was recorded at 37° C. using the Fluoroskan Ascent® reader (filters 390 nm excitation and 460 nm emission). The parameters of the resulting thrombin generation curves were calculated using the Thrombinoscope™ software (Thrombinoscope) and thrombin calibrator to correct for inner filter and substrate consumption effects (Hemker, Pathophysiol Haemost Thromb, 33: 415 (2003)).

Residues, ends and D or L forms follow the SMILES beside them.

`CC(=O)N[C@H](C(=O)NCC(=O)N[C@@H](Cc1c[nH]cn1)C(=O)N[C@H](C(=O)N[C@@H](CO)C(=O)N[C@@H](C)C(=O)NCC(=O)N[C@@H](Cc1c[nH]c2ccccc12)C(=O)N[C@@H](Cc1ccc(O)cc1)C(=O)N[C@@H](CC(=O)O)C(=O)N[C@@H](Cc1ccc(O)cc1)C(=O)N[C@@H](CC(N)=O)C(=O)N[C@@H](C)C(=O)N[C@@H](CC(=O)O)C(=O)N[C@@H](Cc1c[nH]cn1)C(=O)N[C@@H](Cc1ccc(O)cc1)C(=O)N[C@@H](CCCNC(=N)N)C(=O)N[C@@H](CCC(=O)O)C(=O)N[C@@H](Cc1ccccc1)C(=O)N[C@H](C(N)=O)[C@@H](C)O)C(C)C)[C@@H](C)O` [JBS2526] (Ac-TGHVSAGWYDYNADHYREFT-NH2): the IC50 at Protein S turned out to be 3.6 nM. In assay [1], this molecule showed an EC50 of 19 nM.

Regarding `CC(=O)N[C@H](C(=O)NCC(=O)N[C@@H](Cc1c[nH]cn1)C(=O)N[C@H](C(=O)N[C@@H](CO)C(=O)N[C@@H](C)C(=O)NCC(=O)N[C@@H](Cc1c[nH]c2ccccc12)C(=O)N[C@@H](Cc1ccc(O)cc1)C(=O)N[C@@H](CC(=O)O)C(=O)N[C@@H](Cc1ccc(O)cc1)C(=O)N[C@@H](CC(N)=O)C(=O)N[C@@H](Cc1ccccc1)C(=O)N[C@@H](CC(=O)O)C(=O)N[C@@H](CC(=O)O)C(=O)N[C@@H](Cc1ccc(O)cc1)C(=O)N[C@@H](CCCNC(=N)N)C(=O)N[C@@H](CCC(=O)O)C(=O)N[C@@H](Cc1ccccc1)C(=O)N[C@H](C(N)=O)[C@@H](C)O)C(C)C)[C@@H](C)O` [JBS2546] (Ac-TGHVSAGWYDYNFDDYREFT-NH2), the IC50 at Protein S turned out to be 6.8 nM. For the same molecule, it took 30 nM to reach a half-maximal effect in assay [1] (EC50).

In turn, `CC(=O)NCC(=O)NCC(=O)N[C@@H](Cc1c[nH]cn1)C(=O)N[C@H](C(=O)N[C@@H](CO)C(=O)N[C@@H](C)C(=O)NCC(=O)N[C@@H](Cc1c[nH]c2ccccc12)C(=O)N[C@@H](Cc1ccc(O)cc1)C(=O)N[C@@H](CC(=O)O)C(=O)N[C@@H](Cc1ccc(O)cc1)C(=O)N[C@@H](CC(N)=O)C(=O)N[C@@H](Cc1ccccc1)C(=O)N[C@@H](CC(=O)O)C(=O)N[C@@H](Cc1c[nH]cn1)C(=O)N[C@@H](Cc1ccc(O)cc1)C(=O)N[C@@H](CCCNC(=N)N)C(=O)N[C@@H](CCC(=O)O)C(=O)N[C@@H](Cc1ccccc1)C(=O)N[C@H](C(N)=O)[C@@H](C)O)C(C)C` [JBS2552] (Ac-GGHVSAGWYDYNFDHYREFT-NH2) gave an IC50 at Protein S of 5.5 nM. This molecule displayed an EC50 in assay [1] of 24 nM.

Consider `CC(=O)N[C@H](C(=O)NCC(=O)N[C@@H](Cc1c[nH]cn1)C(=O)N[C@H](C(=O)N[C@@H](CO)C(=O)N[C@@H](C)C(=O)NCC(=O)N[C@@H](Cc1c[nH]c2ccccc12)C(=O)N[C@@H](Cc1ccc(O)cc1)C(=O)N[C@@H](CC(=O)O)C(=O)N[C@@H](Cc1ccc(O)cc1)C(=O)N[C@@H](CC(N)=O)C(=O)N[C@@H](Cc1ccccc1)C(=O)N[C@@H](CC(=O)O)C(=O)N[C@@H](CC(C)C)C(=O)N[C@@H](Cc1ccc(O)cc1)C(=O)N[C@@H](CCCNC(=N)N)C(=O)N[C@@H](CCC(=O)O)C(=O)N[C@@H](Cc1ccccc1)C(=O)N[C@H](C(N)=O)[C@@H](C)O)C(C)C)[C@@H](C)O` [JBS2584] (Ac-TGHVSAGWYDYNFDLYREFT-NH2), for which the IC50 at Protein S was found to be 2.7 nM. The same molecule registered an EC50 in assay [1] of 9 nM.

`CC(=O)N[C@H](C(=O)NCC(=O)N[C@@H](Cc1c[nH]cn1)C(=O)N[C@H](C(=O)N[C@@H](CO)C(=O)N[C@@H](C)C(=O)NCC(=O)N[C@@H](Cc1c[nH]c2ccccc12)C(=O)N[C@@H](Cc1ccc(O)cc1)C(=O)N[C@@H](CC(=O)O)C(=O)N[C@@H](Cc1ccc(O)cc1)C(=O)N[C@@H](CC(N)=O)C(=O)N[C@@H](Cc1ccccc1)C(=O)N[C@@H](CC(=O)O)C(=O)N[C@@H](Cc1c[nH]cn1)C(=O)N[C@@H](Cc1ccc(O)cc1)C(=O)N[C@@H](CC(C)C)C(=O)N[C@@H](CCC(=O)O)C(=O)N[C@@H](Cc1ccccc1)C(=O)N[C@H](C(N)=O)[C@@H](C)O)C(C)C)[C@@H](C)O` [JBS2586] (Ac-TGHVSAGWYDYNFDHYLEFT-NH2): the IC50 at Protein S was 2.6 nM. In assay [1], this molecule displayed an EC50 of 19 nM.

As for `CC(=O)N[C@H](C(=O)NCC(=O)N[C@@H](Cc1c[nH]cn1)C(=O)N[C@H](C(=O)N[C@@H](CO)C(=O)N[C@@H](C)C(=O)NCC(=O)N[C@@H](Cc1c[nH]c2ccccc12)C(=O)N[C@@H](Cc1ccc(O)cc1)C(=O)N[C@@H](CC(=O)O)C(=O)N[C@@H](Cc1ccc(O)cc1)C(=O)N[C@@H](CC(N)=O)C(=O)N[C@@H](CCCCN)C(=O)N[C@@H](CC(=O)O)C(=O)N[C@@H](Cc1c[nH]cn1)C(=O)N[C@@H](Cc1ccc(O)cc1)C(=O)N[C@@H](CCCNC(=N)N)C(=O)N[C@@H](CCC(=O)O)C(=O)N[C@@H](Cc1ccccc1)C(=O)N[C@H](C(N)=O)[C@@H](C)O)C(C)C)[C@@H](C)O` [JBS2602] (Ac-TGHVSAGWYDYNKDHYREFT-NH2), on Protein S, the IC50 is 3.4 nM. Besides, the response in assay [1] was half-maximal at 30 nM (EC50).

Molecule `CC(=O)N[C@H](C(=O)NCC(=O)N[C@@H](Cc1c[nH]cn1)C(=O)N[C@H](C(=O)N[C@@H](CO)C(=O)N[C@@H](C)C(=O)NCC(=O)N[C@@H](Cc1c[nH]c2ccccc12)C(=O)N[C@@H](Cc1ccc(O)cc1)C(=O)N[C@@H](CC(=O)O)C(=O)N[C@@H](Cc1ccc(O)cc1)C(=O)N[C@@H](CC(N)=O)C(=O)N[C@@H](Cc1ccccc1)C(=O)N[C@@H](CC(=O)O)C(=O)N[C@@H](CCCCN)C(=O)N[C@@H](Cc1ccc(O)cc1)C(=O)N[C@@H](CCCNC(=N)N)C(=O)N[C@@H](CCC(=O)O)C(=O)N[C@@H](Cc1ccccc1)C(=O)N[C@H](C(N)=O)[C@@H](C)O)C(C)C)[C@@H](C)O` [JBS2604] (Ac-TGHVSAGWYDYNFDKYREFT-NH2) gave an IC50 on Protein S of 4.1 nM. In assay [1], this molecule yielded an EC50 of 19 nM.

A word on the IC50: it is the concentration at which inhibition is half-maximal. Higher therefore signals lower potency. The EC50 is the concentration at which the effect is half-maximal. Read a low EC50 as greater potency.
